Laboratory results published in PubChem BioAssay (NCI).
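How tested: cells in 96-well plates exposed to compound for 48 hours at five concentrations. TGI: total growth inhibition.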

Tests used:
Assay in all cases: growth of human tumour cells (NCI), 48 h
[1] = system: OVCAR-3 ovarian
[2] = system: NCI/ADR-RES ovarian
[3] = system: MDA-MB-231 breast
[4] = system: CCRF-CEM leukemia
[5] = system: U251 CNS
[6] = system: SK-OV-3 ovarian
[7] = system: KM12 colon
[8] = system: LOX IMVI melanoma
[9] = system: T-47D breast
[10] = system: NCI-H23 lung
[11] = system: CAKI-1 renal
[12] = system: SK-MEL-2 melanoma
[13] = system: COLO 205 colon
[14] = system: RXF 393 renal
[15] = system: SNB-75 CNS
[16] = system: A498 renal
[17] = system: HS 578T breast
[18] = system: A549 NSCLC
[19] = system: 786-0 renal
[20] = system: SW-620 colon
[21] = system: HOP-62 NSCLC
[22] = system: SN12C renal
[23] = system: HCT-116 colon
[24] = system: UO-31 renal
[25] = system: SK-MEL-5 melanoma
[26] = system: NCI-H460 lung
[27] = system: MDA-N
[28] = system: HCT-15 colon
[29] = system: MDA-MB-435
[30] = system: SF-295 CNS
[31] = system: NCI-H522 lung
[32] = system: SNB-19 CNS
[33] = system: TK-10 renal
[34] = system: HT29 colon
[35] = system: IGROV1 ovarian
[36] = system: OVCAR-8 ovarian
[37] = system: MCF7 breast
[38] = system: SF-539 CNS
[39] = system: DU-145 prostate
[40] = system: UACC-257 melanoma
[41] = system: OVCAR-5 ovarian
[42] = system: K-562 leukemia
[43] = system: RPMI-8226 leukemia
[44] = system: NCI-H226 lung
[45] = system: SR leukemia
[46] = system: MOLT-4 leukemia
[47] = system: HOP-92 NSCLC
[48] = system: PC-3 prostate
[49] = system: SK-MEL-28 melanoma
[50] = system: MALME-3M melanoma
[51] = system: M14 melanoma
[52] = system: BT-549 breast
[53] = system: SF-268 CNS
[54] = system: ACHN renal
[55] = system: OVCAR-4 ovarian
[56] = system: EKVX NSCLC

SMILES: CC(C)(C)OC(=O)N1C/C=C\C(=O)C2(OCCO2)c2ccccc21
- TGI [1]: 29.6 µM
- TGI [2]: > 100 µM
- TGI [3]: 40.8 µM
- TGI [4]: 57 µM
- TGI [5]: > 100 µM
- TGI [6]: 99.2 µM
- TGI [7]: > 100 µM
- TGI [8]: 32.6 µM
- TGI [9]: 49.5 µM
- TGI [10]: > 100 µM
- TGI [11]: > 100 µM
- TGI [12]: 68.5 µM
- TGI [13]: 35.7 µM
- TGI [14]: 37.8 µM
- TGI [15]: 99.2 µM
- TGI [16]: > 100 µM
- TGI [17]: > 100 µM
- TGI [18]: > 100 µM
- TGI [19]: 56.9 µM
- TGI [20]: 58.7 µM
- TGI [21]: > 100 µM
- TGI [22]: 88.9 µM
- TGI [23]: 34.9 µM
- TGI [24]: 43.1 µM
- TGI [25]: 31.7 µM
- TGI [26]: 50.5 µM
- TGI [27]: 48.3 µM
- TGI [28]: > 100 µM
- TGI [29]: 34 µM
- TGI [30]: 73.9 µM
- TGI [31]: 78.8 µM
- TGI [32]: > 100 µM
- TGI [33]: 47.3 µM
- TGI [34]: 42 µM
- TGI [35]: 33.4 µM
- TGI [36]: 86.6 µM
- TGI [37]: 96.2 µM
- TGI [38]: 50.3 µM
- TGI [39]: 81.8 µM
- TGI [40]: 39.3 µM
- TGI [41]: > 100 µM
- TGI [42]: 57.1 µM
- TGI [43]: 54.1 µM
- TGI [44]: 38.9 µM
- TGI [45]: 77.9 µM
- TGI [46]: 76.5 µM
- TGI [47]: 44.2 µM
- TGI [48]: > 100 µM
- TGI [49]: 49.5 µM
- TGI [50]: 48.1 µM
- TGI [51]: 65.1 µM
- TGI [52]: 51.4 µM
- TGI [53]: > 100 µM
- TGI [54]: > 100 µM
- TGI [55]: > 100 µM
- TGI [56]: > 100 µM
